From the RepoRT retention time repository (doi:10.1021/acs.analchem.2c02893)

test: RP, Thermo Scientific Acclaim RSLC 120 C18, 100 × 2.1 mm, 2.2 µm, 30 °C, 0.2 mL/min, estimated dead time 1.1 min; A: 90% water + 10% methanol + 0.01% formic acid + 5 mM ammonium formate, pH 3.61; B: methanol + 0.01% formic acid + 5 mM ammonium formate, pH 3.61; gradient (min/%B) 0/1 1/1 2/39 13/99.9 15/99.9 15.1/1 20.1/1; conditions: stereoisomer not certain

| Structure (SMILES) | LC retention time [min] |
| --- | --- |
| COC(=O)c1sccc1S(=O)(=O)NC(=O)Nc1nc(C)nc(OC)n1 [Thifensulfuron-methyl] | 6.24 |
| CC1C(=O)OC2CC[N+]3([O-])CC=C(COC(=O)C(C)(O)C1(C)O)C23 (centres undefined) [Monocrotaline-N-oxide] | 3.19 |
| C=CCOc1ccccc1OCC(O)CNC(C)C (centres undefined) [Oxprenolol] | 5.66 |
| CC(C(=O)c1ccccc1)N1CCCC1 (stereo not drawn) [PPP- alpha] | 4.01 |
| CCCc1nn(C)c2c(=O)[nH]c(-c3cc(S(=O)(=O)N4CCN(C)CC4)ccc3OCC)nc12 [Sildenafil] | 7.88 |
| COC(=O)C(NC(=O)c1nn(Cc2ccc(F)cc2)c2ccccc12)C(C)(C)C (centres undefined) [MDMB-FUBINACA] | 11.3 |
| c1ccc(C(CCN2CCCCC2)c2ccccc2)cc1 [Fenpiprane] | 6.82 |
| CC(Cc1ccc(C(C)(C)C)cc1)CN1CC(C)OC(C)C1 (centres undefined) [Fenpropimorph] | 10.7 |
| Oc1ccc2ccccc2c1N=Nc1ccccc1 [Sudan I] | 13.6 |
| COC(=O)C(c1ccccc1)C1CCCCN1 (centres undefined) [Methylphenidate] | 4.96 |
| CCOP(=S)(NC(C)C)Oc1ccccc1C(=O)OC(C)C (centres undefined) [Isofenphos] | 11.2 |
| CSc1nc2cc(Oc3cccc(Cl)c3Cl)c(Cl)cc2[nH]1 [Triclabendazole] | 12 |
| COc1ccc(CC(C)N)cc1OC (centres undefined) [DMA (3-4-)] | 3.94 |
| CCNc1nc(Cl)nc(N(CC)CC)n1 [Trietazine] | 10.2 |
| CCCCCCn1cc(C(=O)c2cccc3ccccc23)c2ccccc21 [JWH-019] | 12.9 |
| COc1cc(CCN)c(OC)cc1Cl [2C-C] | 5.28 |
| O=C(Nc1ccc(F)cc1)c1cccc(Oc2cccc(C(F)(F)F)c2)n1 [Picolinafen] | 12.3 |
| Nc1ncnc2nc[nH]c12 [Adenine] | 2.43 |
| O=c1oc2ccccc2c(O)c1C(CC(O)c1ccc(-c2ccc(Br)cc2)cc1)c1ccccc1 (centres undefined) [Bromadiolone] | 11.5 |
| CN1CCCC(n2nc(Cc3ccc(Cl)cc3)c3ccccc3c2=O)CC1 (centres undefined) [Azelastine] | 7.59 |
| COC=C(C(=O)O)c1ccccc1Oc1cc(Oc2ccccc2C#N)ncn1 [Azoxystrobin acid] | 8.18 |
| CNC(C)C(=O)c1ccc(Cl)cc1 (centres undefined) [Clephedrone (4-Chloromethcathinone)] | 4.91 |

| Structure (SMILES) | LC retention time [min] |
| --- | --- |
| CCCCOC(=O)COc1ccc(Cl)cc1Cl [2.4-D-butylester] | 11.9 |
| CNCCOC(c1ccccc1)c1ccccc1C (centres undefined) [Orphenadrine-Nor (Tofenacin. Elamol)] | 7.54 |
| COc1ccccc1CC(=O)c1cn(CCC2CCCCC2)c2ccccc12 [RCS-8] | 13 |
| CCCCCCC(C)(C)c1ccc(C2CCCC(O)C2)c(O)c1 (centres undefined) [CP 47-497] | 13.1 |
| C#CCOS(=O)OC1CCCCC1Oc1ccc(C(C)(C)C)cc1 (centres undefined) [Propargite] | 12.8 |
| Nc1ccc(S(=O)(=O)NC(=O)c2ccccc2)cc1 [Sulfabenzamide] | 4.72 |
| CC[N+]([O-])(CC)CC(=O)Nc1c(C)cccc1C [Lidocaine-N-oxide] | 5.34 |
| CNC1=C(c2cccc(C(F)(F)F)c2)C(=O)C(c2ccccc2)O1 (centres undefined) [Flurtamone] | 9.14 |
| COc1ccc(NS(=O)(=O)c2ccc(N)cc2)nn1 [Sulfamethoxypyridazine] | 4.38 |
| O=C(NC(=O)c1ccccc1Cl)Nc1ccc(OC(F)(F)F)cc1 [Triflumuron] | 11.2 |
| Cc1cccc(CN2CCN(C(c3ccccc3)c3ccc(Cl)cc3)CC2)c1 (centres undefined) [Meclozine] | 11.3 |
| Cc1ncc2n1-c1ccc(Cl)cc1C(c1ccccc1F)=NC2 [Midazolam] | 8.63 |
| O=S(=O)(O)c1ccc2ccccc2c1 [2-Naphthalin sulfonic acid] | 5.44 |
| COc1ccc2c(c1)C13CCCCC1C(C2)N(C)CC3 (centres undefined) [Dextromethorphan] | 6.51 |
| S=c1nc[nH]c2nc[nH]c12 [6-Mercaptopurine] | 2.62 |
| CC=CC(=O)N(CC)c1ccccc1C [Crotamiton] | 9.24 |
| CNCCCC(C#N)(c1ccc(OC)c(OC)c1)C(C)C (centres undefined) [D617 (met. of verapamil)] | 6.14 |
| NNC(=O)c1ccncc1 [Isoniazide] | 2.18 |
| O=C(NC(=O)c1c(F)cccc1F)Nc1cc(Cl)c(Oc2ncc(C(F)(F)F)cc2Cl)c(Cl)c1 [Chlorfluazuron] | 13.2 |
| CCC(=O)C(CC(C)N(C)C)(c1ccccc1)c1ccccc1 (centres undefined) [Methadone] | 8.04 |
| CNC(=O)Oc1ccccc1C(C)C [Isoprocarb] | 8.12 |
| CC1C(=O)OC2CCN3CC=C(COC(=O)C(C)(O)C1(C)O)C23 (centres undefined) [Monocrotaline] | 2.92 |

| Structure (SMILES) | LC retention time [min] |
| --- | --- |
| CC12C=CC(=O)C=C1CCC1C2C(O)CC2(C)C1CCC2(O)C(=O)CO (centres undefined) [Prednisolone] | 7.84 |
| Clc1ccc(C(OCCN2CCCCC2)c2ccccc2)cc1 (centres undefined) [Cloperastine] | 8.46 |
| CCOC(=O)NCCOc1ccc(Oc2ccccc2)cc1 [Fenoxycarb] | 10.6 |
| Cc1c(Cl)cccc1Nc1ccccc1C(=O)O [Tolfenamic acid] | 11.9 |
| CC1CC2C(C(O)CC3(C)C2CCC3(O)C(=O)CO)C2(C)C=CC(=O)C=C12 (centres undefined) [Prednisolone-Methyl] | 8.75 |
| CN1CCN2c3ncccc3Cc3ccccc3C2C1 (centres undefined) [Mirtazapine] | 5.29 |
| Nc1ncnc2c1ncn2Cc1c(F)cccc1Cl [Arprinocid] | 6.7 |
| CC(=NNC(=O)Nc1cc(F)cc(F)c1)c1ncccc1C(=O)O [Diflufenzopyr] | 6.22 |
| CN1CCN(CCCN2c3ccccc3Sc3ccccc32)CC1 [Perazine] | 8.8 |
| CN(Cc1cc(Br)cc(Br)c1N)C1CCCCC1 [Bromhexine] | 10 |
| CNC(=O)CSP(=S)(OC)OC [Dimethoate] | 5.23 |
| CCCCCCCCCCCC[N+](C)(C)[O-] [N,N-Dimethyldodecylamine N-oxide] | 11.2 |
| COC(=O)C1=C(C)NC(C)=C(C(=O)OCCN(C)Cc2ccccc2)C1c1cccc([N+](=O)[O-])c1 (centres undefined) [Nicardipine] | 8.39 |
| CC(C)(C)NC(=O)C1CCC2C3CCC4NC(=O)C=CC4(C)C3CCC12C (centres undefined) [Finasteride] | 9.9 |
| COc1cc(CCNCc2ccccc2OC)c(OC)cc1Cl [2-C-C-NBoMe] | 7.34 |
| CCSC(=O)N1CCCCCC1 [Molinate] | 9.89 |
| CN1CCC23c4c5ccc(O)c4OC2CCCC3C1C5 (centres undefined) [Desomorphine] | 3.84 |
| CN(C)CCN(Cc1cccs1)c1ccccc1 [Methaphenilene] | 6.32 |
| O=C(O)CCCCC1SCC2NC(=O)NC21 (centres undefined) [Biotin] | 4.44 |
| CON=C(C(=O)OC)c1ccccc1CON=C(C)c1cccc(C(F)(F)F)c1 [Trifloxystrobin] | 11.6 |
